Measurements taken from patent US9315829B2, “Methods for intracellular delivery of nucleic acids” (UNIVERSITE PARIS DESCARTES, priority 2010, dated 2016).

Experiments:
[1] = test system: ciliary muscle; assay: Luciferase expression in aqueous humor after transfection of the ciliary muscle with naked pGLuc (Example 5); format: in vivo, rat; details: for Luciferase (cps) Mean ± sem, level of expression in aqueous humor: pre-treatment 20 mg/ml (10 μl) 45 min before 15 μg pGLuc, day 7, background 99.3 ± 1.5, water 103.5 ± 3.2
Method: FIG. 6: Illustrates the intracellular delivery of naked plasmids to a smooth muscle, the ciliary muscle, and subsequent gene expression in ocular media. Intramuscular pre-injection of triamcinolone acetonide (TA) or anecortave acetate (AA) at 20 mg/ml (10 μl) was carried out 45 min before intramuscular injection of the naked plasmid pGLuc (15 μg in 10 μl in NaCl 0.45%). No transfection or water instead of corticosteroid was used as control. Luminescence is expressed in counts/s (cps). The results are expressed as the mean±sem of 4 to 6 independent experiments.
To reach the ciliary muscle located below the sclera posterior to the limbus, the intra ciliary muscle injection was carried out through a tunneled corneal incision. When the needle had crossed the limbus, it was inserted slightly deeper for a distance of 1 mm and the solutions were injected.
Rats receiving injection of pGLuc in the ciliary muscle were sacrificed on day 7 after treatment. Intraocular fluids were collected on enucleated eyes, clarified by centrifugation and the supernatants stored at −20° C. until tested.
(§1) The luciferase activity was assessed on 10 μl of sample (tissue lysate supernatant or ocular fluid) placed in a white 96 wells plate.
(§2) The detector was a Wallac Victor luminometer (EG&G Wallac, Evry, France) which adds 50 μl of luciferase assay substrate or Gaussia luciferase assay substrate (Promega) to the sample (tissue lysate supernatant or ocular fluid respectively) and integrates the light produced by the sample during 10 s. Results are given for the whole sample in counts per second (cps) or in cps/ml/mg of protein.
Fifteen μg of naked pGLuc in 10 μl in NaCl 0.45% was injected in the ciliary muscle of one eye of anaesthetized rats (the contra lateral eye was used as control).
The plasmid injection was preceded 45 min before by intramuscular injection of 10 μl of triamcinolone acetonide (TA, 20 mg/ml) or anecortave acetate (AA, 20 mg/ml), a synthetic corticosteroid.
No injection and pre-injection with water were performed as controls.

[2] = test system: tibialis anterior muscle; assay: Luciferase expression in tibialis anterior muscle after injection of naked pVAX2-Luc (Example 6); format: in vivo, mouse; details: water control 6.749
Method: Luminescence is expressed in counts/s/ml/mg of protein (cps/ml/mg). The results are expressed as the mean±sem of 3 independent experiments. […] Intramuscular injection in the mouse tibialis anterior muscle was carried out with a 30 G needle on a 300 μl microfine syringe (BD Biosiences). Mouse receiving injection of pVAX2-luc in the tibialis anterior muscle were sacrificed on day 7 after treatment. The tibialis anterior muscle was removed, snap frozen in liquid nitrogen and kept at −80° C. until tested. Tissue samples were then homogenized in 0.3 ml (rat neuroretina and RPE/choroid complex) or 1.0 ml (mouse tibialis anterior muscle) of cell culture lysis reagent (Promega, Charbonniere, France) supplemented with protease inhibitor cocktail (Boehringer, Mannheim, Germany) (one tablet for 50 ml). After centrifugation 10 min at 15 000 g and 4° C., tissue lysate supernatant was collected. The luciferase activity was assessed on 10 μl of sample (tissue lysate supernatant or ocular fluid) placed in a white 96 wells plate. The detector was a Wallac Victor luminometer (EG&G Wallac, Evry, France) which adds 50 μl of luciferase assay substrate or Gaussia luciferase assay substrate (Promega) to the sample (tissue lysate supernatant or ocular fluid respectively) and integrates the light produced by the sample during 10 s. Results are given for the whole sample in counts per second (cps) or in cps/ml/mg of protein. One hundred μg of pVAX1-LacZ or thirty μg of naked pVAX2-Luc in 100 or 30 μl in NaCl 0.45% were, respectively, injected into the tibialis anterior muscle of rats or into the tibialis anterior muscle of mice. In the mice, the plasmid injection was preceded 30 min before by intramuscular injection of 30 μl of triamcinolone acetonide (TA) or dexamethasone (DEX) at 2 or 20 mg/ml, or soluble DEX at 4 mg/ml. Pre-injection with water was performed as control.

[3] = test system: RPE-choroid complex; assay: IVT injection of naked pVAX2-Luc followed by gas injection and/or ET, luciferase in RPE-choroid complex (Example 1); format: in vivo, rat; details: IVT pre-injection 30 min before plasmid, Indocyanin Green 2.5 mg/ml, Polysorbate 80 0.2 mg/ml
Method: (§3) FIG. 2: Illustrates the intracellular delivery of naked plasmids and gene expression in the neuroretina (FIG. 2A) and the RPE-choroid complex (FIG. 2B) of IVT pre-injection of 10 μl of the corticosteroid pharmaceutical specialty KENACORT® at 20 mg/ml (triamcinolone acetonide (TA) as active agent and polysorbate 80 as excipient), Indocyanine Green at 2.5 mg/ml or Polysorbate 80 at 0.2 mg/ml 30 min before IVT injection of the plasmid pVAX2-Luc (30 μg in 10 μl in NaCl 0.45%), followed by gas injection or ET application [8×(80V; 20 ms; 5 Hz)] or combination of both immediately upon IVT injection of the plasmid. Luminescence is expressed in counts/s (cps). The results are expressed as the mean±sem of 4 independent experiments.
Rats receiving intravitreal injection of pVAX2-luc were sacrificed on day 7 after treatment. The eyes were enucleated and dissected under an operating microscope, the neuroretina and RPE/choroid complex removed, snap frozen in liquid nitrogen and kept at −80° C. until tested.
Tissue samples were then homogenized in 0.3 ml (rat neuroretina and RPE/choroid complex) or 1.0 ml (mouse tibialis anterior muscle) of cell culture lysis reagent (Promega, Charbonniere, France) supplemented with protease inhibitor cocktail (Boehringer, Mannheim, Germany) (one tablet for 50 ml). After centrifugation 10 min at 15 000 g and 4° C., tissue lysate supernatant was collected.
as §1, §2
The effect of various chemical agents on the RPE-choroid complex gases injection or electrotransfer-induced intracellular delivery of the naked plasmid pVAX2-Luc and gene expression of the luciferase in neuroretina was evaluated.
Thirty μg of naked pVAX2-Luc in 10 μl in NaCl 0.45% was injected intravitreously in one eye of anaesthetized rats (the contra lateral eye was used as control) immediately followed by gas injection (C2F6 or SF6) or ET application [8×(80V; 20 ms; 5 Hz)] or combination of both. […]
(§4) 7 days after the treatment the animals were sacrificed, the eyes were enucleated and dissected under an optical microscope to isolate the neuroretina and the RPE-choroid complex and the luminescence of the luciferase was measured.

[4] = test system: neuroretina; assay: IVT injection of naked pVAX2-Luc followed by gas injection and/or ET, luciferase in neuroretina (Example 1); format: in vivo, rat; details: IVT pre-injection 30 min before plasmid, Indocyanin Green 2.5 mg/ml, Polysorbate 80 0.2 mg/ml
Method: as §3, with “experiments. […]” for “experiments.”
The luciferase activity was assessed on 10 μl of sample (tissue lysate supernatant or ocular fluid) placed in a white 96 wells plate. […]
The effect of various chemical agents on the RPE-choroid complex gases injection or electrotransfer-induced intracellular delivery of the naked plasmid pVAX2-Luc and gene expression of the luciferase in neuroretina was evaluated. […]
as §4

[5] = pre-treatment 2 mg/ml (30 μl) 30 min before plasmid
[6] = pre-treatment 20 mg/ml (30 μl) 30 min before plasmid

| Compound | level of expression of Luciferase in the aqueous humor compared to naked plasmid alone ([1]; pre-injection 20 mg/ml (10 μl) 45 min before 15 μg pGLuc) | Luciferase (cps) Mean ± sem, level of expression in aqueous humor [1] [cps] | Luciferase (cps) means (10^6) [2, 5] | Luciferase (cps) means (10^6) [2, 6] | improvement of the efficacy of gases injection, by contrast with KENACORT [3] | improvement of the efficiency of ET [3] | efficiency in improving transfection, by contrast with KENACORT [4] |
| --- | --- | --- | --- | --- | --- | --- | --- |
| CC(=O)OCC(=O)[C@@]1(O)CC[C@H]2[C@@H]3CCC4=CC(=O)CC[C@]4(C)C3=CC[C@@]21C [AA, anecortave acetate] | dramatically improve | 122.5 ± 7.2 |  |  |  |  |  |
| C[C@@H]1C[C@H]2[C@@H]3CCC4=CC(=O)C=C[C@]4(C)[C@@]3(F)[C@@H](O)C[C@]2(C)[C@@]1(O)C(=O)CO [DEX, dexamethasone] |  |  | 8.526 10^6 cps | 30.13 10^6 cps |  |  |  |
| CC1(C)C(/C=C/C=C/C=C/C=C2\N(CCCCS(=O)(=O)O)c3ccc4ccccc4c3C2(C)C)=[N+](CCCCS(=O)(=O)[O-])c2ccc3ccccc3c21 [Indocyanin Green, indocyanine green] |  |  |  |  | less efficient | improved, in a certain extent | less efficient |
| CC1(C)O[C@@H]2C[C@H]3[C@@H]4CCC5=CC(=O)C=C[C@]5(C)[C@@]4(F)[C@@H](O)C[C@]3(C)[C@]2(C(=O)CO)O1 [TA, triamcinolone acetonide] |  | 122.3 ± 6.8 | 6.849 10^6 cps | 6.431 10^6 cps |  |  |  |
| polysorbate 80 |  |  |  |  | less efficient | improved, in a certain extent | less efficient |
